# Reference: patent publication US7968596B2, “Preparation and diabetic use of Gibberellins” (Australian Biomedical Company Pty, Ltd., priority 2001, dated 2011)
# How the values were obtained:
# skin and eyes = details: in vivo; cited from earlier work
# rats = details: cited from earlier work
# Human skin cell culture = assay: Effect of Gibberellin A3 on cell growth compared to EGF in vitro (human skin cell culture, keratinocytes media); assay type: cell-based; details: for Results: cell growth / cell division rate: five days
# Description: Human skin cell culture experiments were conducted by using keratinocytes media. Each well was seeded with 1,500 cells. Incubation was carried out at 37° C. for a period of five days.
# mice = details: cited from earlier work
# Diabetic Rats = assay: Effect on streptozotocin-induced diabetic rats (blood glucose, body weight); assay type: in vivo, Male Wistar rats; details: for Blood glucose level after day 20th, 2 hours: 2 hours after administration; for Blood glucose level after day 20th, 5 hours: 5 hours after administration
# Description: Male Wistar rats (290 g˜330 g) were weighed and lightly anaesthetized (4% halothane, 2:1 O2/N2O) so that blood glucose levels could be measured via a tail vein sample, using a Precision Q.I.D. glucometer. Diabetes was then induced by a single tail vein injection of streptozotocin (STZ, 60 mg/kg), which was dissolved immediately prior to use in citrate buffer (50 mM citric acid and 50 mM trisodium citrate; pH 4.5). An equivalent volume of citrate buffer was injected into age-matched control rats.
# Rats were housed in groups of two during the experiment. Animal house temperature was maintained at 20° C. (±2° C.) with a 12 hour light/dark cycle, and rats were allowed free access to food and water.
# Forty-eight hours after the administration of STZ (60 mg/kg), a blood glucose sample was taken and animals with blood glucose levels≧16 mM were considered to be diabetic. Rats were then randomly divided into groups. The slow-acting, Lente Monotard insulin was used and Gibberellin sodium salt was made up as required in distilled water immediately prior to use. Blood glucose readings were obtained two hours or 5 hours after the administration of drug(s) every three days.
# [1] = Keratinocyte medium containing no EGF, but containing Gibberellin A3 (5 μg/ml)
# [2] = Perfect keratinocyte medium (containing EGF) plus Gibberellin A3 (5 μg/ml)
# [3] = Group 1: Insulin 4 unit/rat sub-cutaneous daily
# [4] = Group 2: Insulin 2 unit/rat sub-cutaneous daily
Compound,irritation to skin and eyes (skin and eyes),acute oral LD50 (rats) [mg/kg],"effect of presence of both EGF and Gibberellin A3 on the rate of cell growth (Human skin cell culture; Experiment 3.2, EGF plus Gibberellin A3 5 μg/ml)","stimulation of cell growth by Gibberellin A3 alone, compared to EGF (Human skin cell culture; Experiment 3.4, no EGF, Gibberellin A3 5 μg/ml)",Results: cell growth (Human skin cell culture; [1]),cell division rate (Human skin cell culture; [1]),Results: cell growth (Human skin cell culture; [2]),cell division rate (Human skin cell culture; [2]),acute oral LD50 (mice) [mg/kg],Body weight change on the 30th day (Diabetic Rats; [3]),"Blood glucose level after day 20th, 2 hours (Diabetic Rats; Group 1: Insulin 4 unit/rat sub-cutaneous daily, STZ diabetic rats)","Blood glucose level after day 20th, 5 hours (Diabetic Rats; [3])",Body weight change on the 30th day (Diabetic Rats; [4]) [%],"Blood glucose level after day 20th, 2 hours (Diabetic Rats; [4])","Blood glucose level after day 20th, 5 hours (Diabetic Rats; [4])"
C=C1C[C@]23C[C@@]1(O)CC[C@H]2[C@@]12C=C[C@H](O)[C@@](C)(C(=O)O1)[C@H]2[C@@H]3C(=O)O [Gibberellin A3],non-irritating,6300,no additive effect,as effectively as EGF,Very good growth (cell,division rate = 100),Very good growth (cell,division rate = 100),> 15000,,,,,,
"Insulin: slow-acting, Lente Monotard insulin",,,,,,,,,,+8%,4~5 mM,3~5 mM,−8,15~18 mM,14~16 mM
